The values that follow come from patent US9708314B2, “Heterocyclic amide compound” (NISSAN CHEMICAL INDUSTRIES, LTD., priority 2013, dated 2017).

What all share (assay type): in vivo
Series [1] has as its system transplanted Oryza sativa. The series is described as follows: Test Example 1: effect on crop, application before weed generation in submerged conditions. The settings on record: Application herbicide amount 320 g/ha; Seventeenth Table. In short, it runs like this: (§1)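 Alluvial soil in Wagner pots flooded to 4 cm water depth; weed seeds sown and 2.5 leaf stage rice seedlings transplanted. Emulsion diluted in water applied to water surface on sowing day at stated g/ha. Greenhouse 25° C. to 30° C.; effects scored 0–5 by herbicidal ratio after three weeks.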

The subject of a further series is Galium spurium. Kind of series: Test Example 4: herbicidal effect by application to foliage (diluvial soil, plastic box). The settings on record: Application herbicide amount 320 g/ha. In short, it runs like this:
(§2)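 Scores run from 0 (herbicidal ratio ≤5%) to 5 (≥90%, almost fully withered) and were assessed three weeks after foliar spraying. Seedlings had been raised for 14 days at 25-30° C in sterilized diluvial soil before treatment, with the emulsion diluted in water to the stated g/ha dose.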

A further series relates to Chenopodium album. The description is as above. The following applies: Application herbicide amount 320 g/ha. In short, it runs like this:
as §2

For the next series, the system named is Abutilon theophrasti. Described as above. The settings on record: Application herbicide amount 320 g/ha. The essentials: as §2
The next series concerns Setaria viridis. The description is as above. The following applies: Application herbicide amount 320 g/ha. The essentials: as §2
For a further series, the system named is Digitaria ciliaris. The description is as above. The settings on record: Application herbicide amount 320 g/ha. In short, it runs like this: as §2
The subject of another series is Avena fatua. The series is described as above. The settings on record: Application herbicide amount 320 g/ha. The essentials: as §2
Another series deals with Lolium multiflorum Lam. The series is described as above. The following applies: Application herbicide amount 320 g/ha. In short, it runs like this:
as §2

Series [2] concerns Echinochloa crus-galli var. crus-galli. The series is described as above. The following applies: Application herbicide amount 320 g/ha. In short, it runs like this: as §2
For the next series, the system named is Apera spica-venti. The description is as above. The following applies: Application herbicide amount 320 g/ha. The essentials:
as §2

For another series, the system named is Alopecurus myosuroides. Described as above. The following applies: Application herbicide amount 320 g/ha. The essentials: as §2
In the next series the test system is Veronica persica. The series is described as above. The settings on record: Application herbicide amount 320 g/ha. The essentials:
as §2

Another series concerns Scirpus juncoides. The series is described as follows: Test Example 1: herbicidal activity, application before weed generation in submerged conditions. The following applies: Application herbicide amount 320 g/ha; Seventeenth Table. In short, it runs like this:
as §1

Another series has as its system Monochoria vaginalis. The series is described as above. The settings on record: Application herbicide amount 320 g/ha; Seventeenth Table. In short, it runs like this:
as §1

Series [3] relates to Echinochloa oryzacola Vasing. Described as above. The following applies: Application herbicide amount 320 g/ha; Seventeenth Table. The essentials:
as §1

Series [4] has as its system directly sowed Oryza sativa. The series is described as follows: Test Example 4: effect on crop by application to foliage (diluvial soil, plastic box). The following applies: Application herbicide amount 320 g/ha; effect on crop. The essentials: as §2
In the next series the test system is Zea mays. The series is described as above. The following applies: Application herbicide amount 320 g/ha; effect on crop. In short, it runs like this:
as §2

The test system of series [5] is Beta vulgaris ssp. vulgaris. Described as above. The settings on record: Application herbicide amount 320 g/ha; effect on crop. In short, it runs like this: as §2
The test system of a further series is Triticum aestivum. The series is described as above. The settings on record: Application herbicide amount 320 g/ha; effect on crop. The essentials: as §2
A further series concerns Brassica campestris L. Described as above. The settings on record: Application herbicide amount 320 g/ha; effect on crop. In short, it runs like this:
as §2

The next series relates to Glycine max. The series is described as above. The following applies: Application herbicide amount 320 g/ha; effect on crop. In short, it runs like this:
as §2

As to `Cc1nnc(NC(=O)c2ccc(C(F)(F)F)n3c(SCC(C)C)nnc23)o1` [1-093], in [1], the “a: transplanted Oryza sativa (effect on crop grade)” value (“a: transplanted Oryza sativa” for short) is 0 (Herbicidal ratio of 5% or less (almost no effect)). In addition, in the series with Galium spurium, the Q is 1 (Herbicidal ratio of 5% or more and less than 20%). Further, in the series on Chenopodium album, the O is on record as 5 (Herbicidal ratio of 90% or more (almost completely withered)). Further, the M with Abutilon theophrasti was 4 (Herbicidal ratio of 70% or more and less than 90%). For the same molecule, the G with Setaria viridis was 3 (Herbicidal ratio of 40% or more and less than 70%). For the same molecule, the F in the series with Digitaria ciliaris is listed as 5 (Herbicidal ratio of 90% or more (almost completely withered)). In addition, the I with Avena fatua was 1 (Herbicidal ratio of 5% or more and less than 20%). For the same molecule, the K in the series with Lolium multiflorum Lam. is 1 (Herbicidal ratio of 5% or more and less than 20%). Besides, the H in series [2] was 5 (Herbicidal ratio of 90% or more (almost completely withered)). Further, in the series with Apera spica-venti., the L was 1 (Herbicidal ratio of 5% or more and less than 20%). Further, the J in the series on Alopecurus myosuroides was 0 (Herbicidal ratio of 5% or less (almost no effect)). For the same molecule, in the series with Veronica persica, the R was 4 (Herbicidal ratio of 70% or more and less than 90%). In the series with Scirpus juncoides, the “B: Scirpus juncoides (herbicidal effect grade)” value (shortened to “B: Scirpus juncoides”) was 4 (Herbicidal ratio of 70% or more and less than 90%). Moreover, the “C: Monochoria vaginalis (herbicidal effect grade)” value (shortened to “C: Monochoria vaginalis”) with Monochoria vaginalis is 3 (Herbicidal ratio of 40% or more and less than 70%). In addition, in series [3], the “A: Echinochloa oryzicola Vasing. (herbicidal effect grade)” value is listed as 5 (Herbicidal ratio of 90% or more (almost completely withered)). In series [4], the d was 3 (Herbicidal ratio of 40% or more and less than 70%). Also, the b in the series on Zea mays is 0 (Herbicidal ratio of 5% or less (almost no effect)). Further, the f in [5] was 5 (Herbicidal ratio of 90% or more (almost completely withered)). The e with Triticum aestivum is reported as 0 (Herbicidal ratio of 5% or less (almost no effect)). Besides, the g in the series with Brassica campestris L. is 3 (Herbicidal ratio of 40% or more and less than 70%). Moreover, the c with Glycine max is 4 (Herbicidal ratio of 70% or more and less than 90%).
As to `Cc1nnc(NC(=O)c2ccc(C(F)(F)F)n3c(-c4cccc(Cl)n4)nnc23)o1` [1-055], in series [1], the “a: transplanted Oryza sativa” value is 1 (Herbicidal ratio of 5% or more and less than 20%). Moreover, the Q in the series with Galium spurium was 2 (Herbicidal ratio of 20% or more and less than 40%). In the series on Chenopodium album, the O is reported as 5 (Herbicidal ratio of 90% or more (almost completely withered)). The M with Abutilon theophrasti was 5 (Herbicidal ratio of 90% or more (almost completely withered)). Also, in the series on Setaria viridis, the G was 3 (Herbicidal ratio of 40% or more and less than 70%). Also, the F in the series with Digitaria ciliaris is 4 (Herbicidal ratio of 70% or more and less than 90%). The I in the series with Avena fatua is 1 (Herbicidal ratio of 5% or more and less than 20%). Further, the K in the series on Lolium multiflorum Lam. was 2 (Herbicidal ratio of 20% or more and less than 40%). For the same molecule, the H in [2] is 4 (Herbicidal ratio of 70% or more and less than 90%). In addition, in the series on Apera spica-venti., the L is 3 (Herbicidal ratio of 40% or more and less than 70%). Besides, in the series with Alopecurus myosuroides, the J was 3 (Herbicidal ratio of 40% or more and less than 70%). Also, the R in the series on Veronica persica is 4 (Herbicidal ratio of 70% or more and less than 90%). For the same molecule, the “B: Scirpus juncoides” value with Scirpus juncoides is 4 (Herbicidal ratio of 70% or more and less than 90%). In the series on Monochoria vaginalis, the “C: Monochoria vaginalis” value was 4 (Herbicidal ratio of 70% or more and less than 90%). Also, in [3], the “A: Echinochloa oryzicola Vasing. (herbicidal effect grade)” value is 4 (Herbicidal ratio of 70% or more and less than 90%). The d in [4] was 3 (Herbicidal ratio of 40% or more and less than 70%). The b with Zea mays is given as 0 (Herbicidal ratio of 5% or less (almost no effect)). The f in [5] was 5 (Herbicidal ratio of 90% or more (almost completely withered)). In addition, the e with Triticum aestivum is 1 (Herbicidal ratio of 5% or more and less than 20%). Also, the g in the series with Brassica campestris L. was 4 (Herbicidal ratio of 70% or more and less than 90%). The c with Glycine max is 0 (Herbicidal ratio of 5% or less (almost no effect)).
For the molecule `CC(C)Sc1nnc2c(C(=O)Nc3nnco3)ccc(C(F)(F)F)n12` [1-091], in series [1], the “a: transplanted Oryza sativa” value is 0 (Herbicidal ratio of 5% or less (almost no effect)). Also, in the series on Galium spurium, the Q is 4 (Herbicidal ratio of 70% or more and less than 90%). In addition, the O with Chenopodium album is on record as 5 (Herbicidal ratio of 90% or more (almost completely withered)). Besides, in the series with Abutilon theophrasti, the M was 5 (Herbicidal ratio of 90% or more (almost completely withered)). In addition, the G in the series on Setaria viridis was 5 (Herbicidal ratio of 90% or more (almost completely withered)). For the same molecule, in the series with Digitaria ciliaris, the F is given as 5 (Herbicidal ratio of 90% or more (almost completely withered)). Besides, the I with Avena fatua was 4 (Herbicidal ratio of 70% or more and less than 90%). Also, the K with Lolium multiflorum Lam. was 3 (Herbicidal ratio of 40% or more and less than 70%). The H in series [2] is 5 (Herbicidal ratio of 90% or more (almost completely withered)). Besides, in the series on Apera spica-venti., the L was 3 (Herbicidal ratio of 40% or more and less than 70%). For the same molecule, the J with Alopecurus myosuroides is 2 (Herbicidal ratio of 20% or more and less than 40%). Also, the R in the series on Veronica persica is 5 (Herbicidal ratio of 90% or more (almost completely withered)). Further, the “B: Scirpus juncoides” value in the series with Scirpus juncoides is recorded as 5 (Herbicidal ratio of 90% or more (almost completely withered)). In the series on Monochoria vaginalis, the “C: Monochoria vaginalis” value is reported as 5 (Herbicidal ratio of 90% or more (almost completely withered)). Further, the “A: Echinochloa oryzicola Vasing. (herbicidal effect grade)” value in series [3] is reported as 5 (Herbicidal ratio of 90% or more (almost completely withered)). In [4], the d was 4 (Herbicidal ratio of 70% or more and less than 90%). In addition, in the series on Zea mays, the b is recorded as 0 (Herbicidal ratio of 5% or less (almost no effect)). Further, in series [5], the f is 5 (Herbicidal ratio of 90% or more (almost completely withered)). The e with Triticum aestivum was 3 (Herbicidal ratio of 40% or more and less than 70%). Also, the g in the series on Brassica campestris L. was 5 (Herbicidal ratio of 90% or more (almost completely withered)). Also, the c with Glycine max was 2 (Herbicidal ratio of 20% or more and less than 40%).
As for `Cc1nnc(NC(=O)c2ccc(C(F)(F)C(F)(F)F)n3c(C(C)C)nnc23)o1` [1-066], in series [1], the “a: transplanted Oryza sativa” value was 2 (Herbicidal ratio of 20% or more and less than 40%). Besides, in the series on Galium spurium, the Q was 1 (Herbicidal ratio of 5% or more and less than 20%). The O with Chenopodium album is reported as 5 (Herbicidal ratio of 90% or more (almost completely withered)). For the same molecule, in the series on Abutilon theophrasti, the M is 3 (Herbicidal ratio of 40% or more and less than 70%). The G in the series on Setaria viridis is 1 (Herbicidal ratio of 5% or more and less than 20%). Also, the F with Digitaria ciliaris was 3 (Herbicidal ratio of 40% or more and less than 70%). For the same molecule, the I in the series on Avena fatua was 1 (Herbicidal ratio of 5% or more and less than 20%). Moreover, the K in the series on Lolium multiflorum Lam. is 0 (Herbicidal ratio of 5% or less (almost no effect)). Further, in series [2], the H is 4 (Herbicidal ratio of 70% or more and less than 90%). In addition, the L in the series with Apera spica-venti. was 0 (Herbicidal ratio of 5% or less (almost no effect)). In addition, the J in the series on Alopecurus myosuroides is 0 (Herbicidal ratio of 5% or less (almost no effect)). The R with Veronica persica was 4 (Herbicidal ratio of 70% or more and less than 90%). Also, the “B: Scirpus juncoides” value with Scirpus juncoides was 4 (Herbicidal ratio of 70% or more and less than 90%). Besides, in the series with Monochoria vaginalis, the “C: Monochoria vaginalis” value is 2 (Herbicidal ratio of 20% or more and less than 40%). Moreover, in series [3], the “A: Echinochloa oryzicola Vasing. (herbicidal effect grade)” value is 5 (Herbicidal ratio of 90% or more (almost completely withered)). In addition, in [4], the d is 3 (Herbicidal ratio of 40% or more and less than 70%). The b with Zea mays is on record as 0 (Herbicidal ratio of 5% or less (almost no effect)). Also, the f in [5] was 4 (Herbicidal ratio of 70% or more and less than 90%). In addition, the e in the series on Triticum aestivum was 0 (Herbicidal ratio of 5% or less (almost no effect)). In addition, the g in the series on Brassica campestris L. is reported as 0 (Herbicidal ratio of 5% or less (almost no effect)). Besides, in the series with Glycine max, the c is 0 (Herbicidal ratio of 5% or less (almost no effect)).
